Measurements from patent US8912163B2, “Compositions for the treatment or prophylaxis of viral infections” (Katholieke Universiteit Leuven, priority 2007, dated 2014).
Values after ≈ are worked out from the molar mass of the structure shown. Read-outs that look alike come from different tables or passages of the source.

What was measured:
Water-solubility by HPLC = assay type: physicochemical; conditions: deionised water, room temperature; for solubility: thermodynamic from solid
Method: HPLC was carried out on a Waters 484 System using Novapack C18 reverse phase column. Flow rate: 1 mL/min. Detection: UV 254 nm. […] The samples were centrifuged at 14.000 rpm in an Eppendorf micro-centrifuge for 1.5 min at room temperature. An aliquot of the clear supernatant was removed and diluted to a concentration within the range of a five-point standard curve. Water-solubility was calculated from each peak area of the above solution by HPLC compared with the sample dissolved in acetonitrile, the concentration of which is already known.

VZV TK+ OKA = assay: VZV plaque reduction in HEL cells, TK+ strain OKA; assay type: cell-based, Varicella Zoster virus
Method: (§1) VZV-drug susceptibility assays were performed on confluent HEL cells in 96-well microtiter plates. Monolayers were infected with 20 PFU of cell-associated virus per well. For each assay, virus controls (infected-untreated cells) were included. After a 2-hour incubation period, the virus inoculum was removed and the media replaced by the different dilutions (in duplicate) of the tested molecules. Serial dilutions of test compounds were incubated with the infected monolayers for 5 days. After the 5-day incubation period, the cells were fixed and stained with Giemsa, and the level of virus-induced cytopathic effect was determined by counting the number of plaques for each dilution.

VZV TK− 07/1 = assay: VZV plaque reduction in HEL cells, TK- strain 07/1; assay type: cell-based, Varicella Zoster virus
Method: as §1

HEL cells = assay: in vitro; assay type: cell-based
in vitro = assay type: cell-based; conditions: human
VZV = assay: Anti-VZV activity in VZV-infected HEL cell cultures (general statements); assay type: cell-based, Varicella Zoster virus; conditions: HEL cells
Method: The objective of this study was to compare the antiviral activity of Compounds 1, 3, 5, 7 and 9 in HEL cells inoculated with VZV strains. Antiviral activity was assessed as the ability of Compounds 1, 3, 5, 7 and 9 to reduce viral plaque formation after incubation periods of 5 days as compared to untreated control cultures.
as §1

VZV TK+ YS = assay: VZV plaque reduction in HEL cells, TK+ strain YS; assay type: cell-based, Varicella Zoster virus; conditions: 5 days
Method: as §1

[1] = Conversion in bovine serum (10%); assay type: in vitro ADME; conditions: Bovine serum 10% in PBS, 37° C.
Method: (§2) A variety of test compounds have been evaluated for their substrate activity against purified CD26, human serum (HS), and bovine serum (BS) in Eppendorf tubes. The 400 μL reaction mixture contained 50 μM of test compound in PBS (containing 0.1% DMSO). […] At different time points, 100 μL was withdrawn from the reaction mixture, added to 200 μL methanol, and put on ice for ˜10 min. Then, the mixture was centrifuged at 13,000 rpm for 5 min at 4° C. and 250 μL of supernatant was analyzed by HPLC on a reverse phase RP-8 column, using following gradients: […]
(§3) Gradient A (Buffer A: 50 mM NaH2PO4+5 mM heptane-sulfonic acid pH 3.2; buffer B: acetonitrile): 2 min 98% A+2% B; 6 min linear gradient to 80% A+20% B; 2 min linear gradient to 75% A+25% B; 2 min linear gradient to 65% A+35% B; 18 min linear gradient to 50% A+50% B; 5 min 50% A+50% B; 5 min linear gradient to 98% A+2% B; 5 min equilibration at 98% A+2% B.
(§4) Gradient B: 2 min 98% A+2% B; 6 min linear gradient to 80% A+20% B; 2 min linear gradient to 75% A+25% B; 2 min linear gradient to 65% A+35% B; 8 min linear gradient to 50% A+50% B; 10 min 50% A+50% B; 10 min linear gradient to 20% A+80% B; 5 min 20% A+80% B; 15 min linear gradient to 98% A+2% B; 5 min 98% A+2% B.

[2] = Oral bioavailability in mice: Compound 1 in plasma after single oral gavage; assay type: in vivo; conditions: for Compound 1 in plasma (area under the curve (HPLC)): dose equivalent to 25 mg/kg of Compound 1, relative peak area
Source text: The results of this study are shown in Table 1 below and in FIG. 1 of the accompanying drawings.

[3] = Conversion in human serum (10%); assay type: in vitro ADME; conditions: Human serum 10% in PBS, 37° C.
Method: as §2, §3, §4

purified CD26 = purified CD26 (Homo sapiens, UniProt P27487); assay: Conversion (substrate activity) by purified CD26; assay type: biochemical; conditions: purified CD26 (1.5 mU in PBS), 37° C.
Chain of purified CD26 (P27487 whole entry, species assumed): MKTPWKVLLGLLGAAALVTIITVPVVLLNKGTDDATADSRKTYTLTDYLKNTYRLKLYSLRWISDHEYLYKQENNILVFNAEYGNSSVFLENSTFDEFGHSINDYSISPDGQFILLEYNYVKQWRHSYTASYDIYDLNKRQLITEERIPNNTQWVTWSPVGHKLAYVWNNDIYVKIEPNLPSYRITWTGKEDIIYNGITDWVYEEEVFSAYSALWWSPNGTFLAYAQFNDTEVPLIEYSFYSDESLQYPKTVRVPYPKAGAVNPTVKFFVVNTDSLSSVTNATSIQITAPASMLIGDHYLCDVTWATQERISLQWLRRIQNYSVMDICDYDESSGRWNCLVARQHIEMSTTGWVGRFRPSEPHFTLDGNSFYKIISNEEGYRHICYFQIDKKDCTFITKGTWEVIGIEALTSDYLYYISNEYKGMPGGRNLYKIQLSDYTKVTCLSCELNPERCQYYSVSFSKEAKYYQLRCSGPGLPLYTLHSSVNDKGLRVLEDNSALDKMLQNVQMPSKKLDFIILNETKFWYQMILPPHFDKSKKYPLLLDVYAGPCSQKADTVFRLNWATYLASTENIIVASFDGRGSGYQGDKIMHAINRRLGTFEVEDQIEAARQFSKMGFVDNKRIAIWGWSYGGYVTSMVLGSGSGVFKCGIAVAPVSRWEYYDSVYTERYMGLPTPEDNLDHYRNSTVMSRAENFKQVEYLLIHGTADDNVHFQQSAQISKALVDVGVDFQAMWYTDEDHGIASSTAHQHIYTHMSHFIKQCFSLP
Method: A variety of test compounds have been evaluated for their substrate activity against purified CD26, human serum (HS), and bovine serum (BS) in Eppendorf tubes. The 400 μL reaction mixture contained 50 μM of test compound in PBS (containing 0.1% DMSO). The reaction was started by the addition of purified CD26 (1.5 mU) or 20% of HS (in PBS) or BS (in PBS) at 37° C. At different time points, 100 μL was withdrawn from the reaction mixture, added to 200 μL methanol, and put on ice for ˜10 min. Then, the mixture was centrifuged at 13,000 rpm for 5 min at 4° C. and 250 μL of supernatant was analyzed by HPLC on a reverse phase RP-8 column, using following gradients: […]
as §3, §4

[4] = overnight, means of three determinations
[5] = Human alphaherpesvirus 3, HEL, 120 h, read-out: EC50 VZV TK+ OKA, Table 3b, plaque formation, 5 days
[6] = Human alphaherpesvirus 3, HEL, 120 h, read-out: EC50 VZV TK− 07/1, Table 3b, plaque formation, 5 days
[7] = Human alphaherpesvirus 3, HEL, 120 h, Table 3b, plaque formation

## CCCCCc1ccc(-c2cc3cn([C@H]4CC(O)[C@@H](CO)O4)c(=O)nc3o2)cc1 (stereo partly drawn) [Compound 1, reference compound]
Water-solubility by HPLC; [4]
  Solubility in water: 22 ± 7 µg/mL (≈ 55.2 µM)
Water-solubility by HPLC; read-out: water-solubility
  solubility: 22 µg/mL (≈ 55.2 µM)

## CCCCCc1ccc(-c2cc3cn([C@H]4CC(OC(=O)C(N)C(C)C)[C@@H](CO)O4)c(=O)nc3o2)cc1 (stereo partly drawn) [Compound 3, 3-[2′-Deoxy-3′-O-valyl-β-D-ribofuranosyl]-6-(p-pentylphenyl)-2,3-dihydrofuro[2,3-d]pyrimidin-2-one, reference compound]
VZV TK+ OKA; [5]
  EC50: 7 nM
VZV TK− 07/1
  antiviral activity against VZV/TK− (in words): lose antiviral activity
VZV TK− 07/1; [6]
  EC50: > 5000 nM
HEL cells
  cytotoxic or cytostatic (in words): Neither of them is cytotoxic or cytostatic
HEL cells; human
  MCC: 20 µM
In vitro
  CC50: > 5000 nM
VZV
  antiviral activity in VZV-infected HEL cell cultures (in words): active
VZV TK+ YS; [7]
  EC50: 4 nM

## CCCCCc1ccc(-c2cc3cn([C@H]4CC(O)[C@@H](COC(=O)C(N)C(C)C)O4)c(=O)nc3o2)cc1 (stereo partly drawn) [Compound 5, reference compound]
VZV TK+ OKA; Human alphaherpesvirus 3, HEL, 120 h, read-out: EC50 VZV TK+ OKA, Table 3, plaque formation, 5 days
  EC50: 14 nM
VZV TK− 07/1
  antiviral activity against VZV/TK− (in words): lose antiviral activity
VZV TK− 07/1; Human alphaherpesvirus 3, HEL, 120 h, read-out: EC50 VZV TK− 07/1, Table 3, plaque formation, 5 days
  EC50: > 1000 nM
HEL cells
  cytotoxic or cytostatic (in words): Neither of them is cytotoxic or cytostatic
HEL cells; human
  MCC: >1 µM
In vitro
  CC50: > 500 nM
VZV
  antiviral activity in VZV-infected HEL cell cultures (in words): active
Water-solubility by HPLC; overnight, means of three determinations, read-out: Solubility in water
  solubility: 211 ± 44 µg/mL (≈ 424 µM)
VZV TK+ YS; Human alphaherpesvirus 3, HEL, 120 h, Table 3, plaque formation
  EC50: 30 nM

## CCCCCc1ccc(-c2cc3cn([C@H]4C[C@H](O)[C@@H](COC(=O)[C@@H](NC(=O)[C@@H]5CCCN5C(=O)[C@@H](N)C(C)C)C(C)C)O4)c(=O)nc3o2)cc1 [Compound 7]
VZV TK+ OKA; Table 3, plaque formation, 5 days, read-out: EC50 VZV TK+ OKA
  EC50: 12 nM
[1]; 0 hr
  Formation of hydrolysis products (%): Compound 1: 0%
  Formation of hydrolysis products (%): Compound 5: 0%
  Formation of hydrolysis products (%): Compound 7: 100%
[1]; 1 hr
  Formation of hydrolysis products (%): Compound 1: 20.3%
  Formation of hydrolysis products (%): Compound 5: 19.9%
  Formation of hydrolysis products (%): Compound 7: 59.8%
[1]; 4 hr
  Formation of hydrolysis products (%): Compound 1: 44.8%
  Formation of hydrolysis products (%): Compound 5: 34.7%
  Formation of hydrolysis products (%): Compound 7: 20.4%
[1]; 20 hr
  Formation of hydrolysis products (%): Compound 1: 74.4%
  Formation of hydrolysis products (%): Compound 5: 21%
  Formation of hydrolysis products (%): Compound 7: 3.3%
[2]; 15 min after oral gavage
  Compound 1 in plasma (area under the curve (HPLC)): 32
[2]; 30 min after oral gavage
  Compound 1 in plasma (area under the curve (HPLC)): 52
[2]; 45 min after oral gavage
  Compound 1 in plasma (area under the curve (HPLC)): 87
[2]; 60 min after oral gavage
  Compound 1 in plasma (area under the curve (HPLC)): 44
[2]; 120 min after oral gavage
  Compound 1 in plasma (area under the curve (HPLC)): 14
[2]; 180 min after oral gavage
  Compound 1 in plasma (area under the curve (HPLC)): 6.2
[2]; oral gavage, versus dosing Compound 1
  increase of the oral bioavailability of Compound 1 (as estimated by the AUC values): approximately 12 fold
[3]; 0 hr
  Formation of hydrolysis products (%): Compound 1: 0%
  Formation of hydrolysis products (%): Compound 5: 0%
  Formation of hydrolysis products (%): Compound 7: 100%
[3]; 1 hr
  Formation of hydrolysis products (%): Compound 1: 57.6%
  Formation of hydrolysis products (%): Compound 5: 11.4%
  Formation of hydrolysis products (%): Compound 7: 31%
[3]; 4 hr
  Formation of hydrolysis products (%): Compound 1: 73.4%
  Formation of hydrolysis products (%): Compound 5: 21.5%
  Formation of hydrolysis products (%): Compound 7: 5.0%
[3]; 20 hr
  Formation of hydrolysis products (%): Compound 1: 88.5%
  Formation of hydrolysis products (%): Compound 5: 9.7%
  Formation of hydrolysis products (%): Compound 7: 1.8%
VZV TK− 07/1
  antiviral activity against VZV/TK− (in words): lose antiviral activity
VZV TK− 07/1; Table 3, plaque formation, 5 days, read-out: EC50 VZV TK− 07/1
  EC50: > 1000 nM
HEL cells
  CC50: > 500 nM
  MCC: >1 µM
  cytotoxic or cytostatic (in words): Neither of them is cytotoxic or cytostatic
VZV
  antiviral activity in VZV-infected HEL cell cultures (in words): found to be active
Water-solubility by HPLC
  water-solubility: 1270 µg/mL
  water-solubility relative to Compound 1: more than 57 fold
Water-solubility by HPLC; [4]
  Solubility in water: 1270 ± 50 µg/mL (≈ 1830 µM)
Purified CD26; 0 hr
  Formation of hydrolysis products (%): Compound 1: 0%
  Formation of hydrolysis products (%): Compound 5: 0%
  Formation of hydrolysis products (%): Compound 7: 100%
Purified CD26; 2 hr
  Formation of hydrolysis products (%): Compound 1: 49.4%
  Formation of hydrolysis products (%): Compound 5: 50.6%
  Formation of hydrolysis products (%): Compound 7: 0%
Purified CD26; 6 hr
  Formation of hydrolysis products (%): Compound 1: 62.9%
  Formation of hydrolysis products (%): Compound 5: 37.1%
  Formation of hydrolysis products (%): Compound 7: 0%
Purified CD26; 20 hr
  Formation of hydrolysis products (%): Compound 1: 75.5%
  Formation of hydrolysis products (%): Compound 5: 24.5%
  Formation of hydrolysis products (%): Compound 7: 0%
VZV TK+ YS; Table 3, plaque formation
  EC50: 10 nM

## CCCCCc1ccc(-c2cc3cn(C4CC(OC(=O)C(NC(=O)C5CCCN5C(=O)C(N)C(C)C)C(C)C)C(CO)O4)c(=O)nc3o2)cc1 [Compound 9, 3-[2′-Deoxy-3′-O-(valyl-prolyl-valyl)-β-D-ribofuranosyl]-6-(p-pentylphenyl)-2,3-dihydrofuro[2,3-d]pyrimidin-2-one]
VZV TK+ OKA; [5]
  EC50: 17 nM
VZV TK− 07/1
  antiviral activity against VZV/TK− (in words): lose antiviral activity
VZV TK− 07/1; [6]
  EC50: > 5000 nM
HEL cells
  cytotoxic or cytostatic (in words): Neither of them is cytotoxic or cytostatic
HEL cells; human
  MCC: 20 µM
In vitro
  CC50: > 5000 nM
VZV
  antiviral activity in VZV-infected HEL cell cultures (in words): found to be active
VZV TK+ YS; [7]
  EC50: 16 nM
